Drawing on PubChem BioAssay AID608 (Sanford-Burnham Center for Chemical Genomics, 2007), this text covers Kd for 104 compounds.

Activity calls are given as the source filed them. No rule for the calls is given here. Bounds are passed on as bounds.

For this assay, the target named is Peptidyl-prolyl cis-trans isomerase FKBP1A (Homo sapiens) (UniProt P62942). Nature of the assay: FKBP12 binders, biophysical, NMR detection (AID 608). Conditions: NMR binding, purified FKBP12.
Peptidyl-prolyl cis-trans isomerase FKBP1A (Homo sapiens), sequence (P62942 whole entry, looked up): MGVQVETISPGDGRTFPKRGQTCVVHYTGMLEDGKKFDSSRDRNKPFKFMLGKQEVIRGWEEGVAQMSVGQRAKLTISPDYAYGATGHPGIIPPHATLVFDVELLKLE
For orientation: Kd means the free concentration of one partner at which half of the binding sites on the other are occupied at equilibrium, for simple one-to-one binding. In the case of `O=C(O)/C=C/C=C/c1ccccc1`, the Kd is > 4 mM (inactive).
`CN(Cc1nc2ccccc2n1C)S(C)(=O)=O`: the Kd was > 4 mM (inactive).
Under `O=C(O)C1(O)C[C@@H](O)C(O)[C@H](O)C1` (some centres undefined) stands > 4 mM (inactive).
With `COC(=O)C1=C(C)N(Cc2ccco2)C(=O)C1`, the Kd was > 4 mM (inactive).
Under `OCc1ccc2c(c1)CCO2` stands > 4 mM (inactive).
Under `Cn1c(SCC(N)=O)nc2c1c(=O)[nH]c(=O)n2C` stands > 4 mM (inactive); under `O=C1CSC(=O)N1CN1CCCC1`, > 4 mM (inactive); under `O=C(NCc1cccs1)c1nn2cccnc2c1Cl`, > 4 mM (inactive).
`Cc1occc1C(=O)Nc1nnc(C(F)(F)F)s1`: the Kd is > 4 mM (inactive).
`O=C1CSC(=O)N1CNc1ccccc1`: the Kd was > 4 mM (inactive).
The figure for `O=C(c1cc(-c2ccccc2)on1)N1CCCC1` is > 4 mM (inactive).
The figure for `NC(=O)CSc1ccc2nnc(-c3cccs3)n2n1` is > 4 mM (inactive).
`NC(=O)CSCc1ccc(Br)cc1`: the Kd was > 4 mM (inactive).
Under `Cc1c(C)c2c(c(C)c1O)CCC(C)(CCCC(C)CCCC(C)CCCC(C)C)O2` (centres undefined) stands > 4 mM (inactive); under `NCc1oc(-c2ccccc2)cc1C(=O)O`, > 4 mM (inactive).
Take `Cc1cc(NC(=O)c2ccc3c(c2)OCCO3)no1`: the Kd is > 4 mM (inactive).
Under `Cc1nn2c(-c3ccncc3)nnc2c2ccccc12` stands > 4 mM (inactive); under `COc1ccc(CN2CCOCC2)c(C)c1C`, > 4 mM (inactive).
The figure for `Cc1n[nH]c(=S)n(/N=C/c2ccccc2)c1=O` is > 4 mM (inactive); for `CN1C(=O)CC(=O)N(C)c2ccccc21` it is > 4 mM (inactive).
The figure for `Nc1ccc(CN2CCS(=O)(=O)CC2)cc1` is > 4 mM (inactive); for `CC(=O)Nc1ccc(S(=O)(=O)NCC2CCCO2)cc1` (centres undefined) it is > 4 mM (inactive); for `Cc1cc(=O)n2ncn(Cc3ccccc3)c2n1` it is > 4 mM (inactive).
Consider `Cc1cc(NC(=O)CSc2nncn2C)no1`, for which the Kd was > 4 mM (inactive).
Under `COc1ccc(-c2c(C)n([O-])c(C)c(C)[n+]2=O)cc1` stands > 4 mM (inactive); under `Nc1nnc(C(F)(F)F)s1`, > 4 mM (inactive); under `O=C1CSC(=O)N1CN1CCOCC1`, > 4 mM (inactive).
The figure for `CCCCCCCCCCCCCCC(C(=O)O)C(O)(CC(=O)OC)C(=O)O` (centres undefined) is > 4 mM (inactive); for `c1cc2c(cc1[C@H]1OC[C@H]3[C@@H]1CO[C@H]3c1ccc3c(c1)OCO3)OCO2` it is > 4 mM (inactive).
The figure for `NC(=O)CCN1C(=O)c2ccccc2C1=O` is > 4 mM (inactive); for `O=c1c(Cl)c(NCCO)ncn1-c1ccccc1` it is > 4 mM (inactive); for `Cc1nc2c(=O)[nH]c3ccccc3c2o1` it is > 4 mM (inactive).
For the compound `CC(=O)Nc1cccc(-c2nnc3n2CC(C)S3)c1` (centres undefined), the Kd was > 4 mM (inactive).
Under `CCOC(=O)c1cc(C)n(C)n1` stands > 4 mM (inactive).
Consider `Nc1nc2ncc(=O)[nH]c2c(=O)[nH]1`, for which the Kd is > 4 mM (inactive).
The figure for `O=S1(=O)CCC(NC(=S)Nc2ccc(O)cc2)C1` (centres undefined) is > 4 mM (inactive); for `O=C(c1ccc(N2CCNCC2)cc1)c1cccnc1` it is > 4 mM (inactive); for `CN1CCC(NC(=O)c2cnccn2)CC1` it is > 4 mM (inactive).
The figure for `O=C(c1cccc(-n2cnnn2)c1)N1CCOCC1` is > 4 mM (inactive); for `O=C(NCC1CCCCC1)c1ccco1` it is > 4 mM (inactive).
Under `O=C(O)Cn1nnn(-c2ccccc2)c1=S` stands > 4 mM (inactive); under `Cn1cc(Cl)c(C(=O)Nc2ccncc2)n1`, > 4 mM (inactive).
As for `Cc1ccccc1OCC(=O)O`, the Kd was > 4 mM (inactive).
Under `O=C(CSc1cccc2cccnc12)N1CCOCC1` stands “inactive”; under `CC1(C)C(=O)C=C[C@@]2(C)C1CC(=O)[C@]1(C)C2CC[C@@]2(C)[C@H](c3ccoc3)OC(=O)[C@H]3O[C@]321` (some centres undefined), > 4 mM (inactive).
Under `O=C(CSc1ccccc1)N1CCOCC1` stands 0.0235 mM; under `C/C=C(\C)C(=O)O[C@@H]1c2c(ccc3ccc(=O)oc23)OC(C)(C)[C@@H]1OC(C)=O`, > 4 mM (inactive).
Turning to `Nc1ncnc2c1ncn2CCN1CCOCC1`, the Kd was > 4 mM (inactive).
For `Cc1ccc(Cl)cc1NS(=O)(=O)N1CCOCC1`, the Kd was > 4 mM (inactive).
Regarding `O=C(Nc1ccc2ccccc2c1)c1cnccn1`, the Kd is > 4 mM (inactive).
Consider `O=C1C2C3CCC(O3)C2C(=O)N1c1ccccc1` (centres undefined), for which the Kd is > 4 mM (inactive).
The figure for `Oc1ccc(-n2ccnc2)cc1` is > 4 mM (inactive); for `Cc1cc(C)cc(C(=O)n2cnnc2N)c1` it is > 4 mM (inactive); for `COc1cccc(NC(=O)c2ocnc2C)c1` it is > 4 mM (inactive).
The figure for `O=S1(=O)CCC(NC(=S)N2CCCCC2)C1` (centres undefined) is > 4 mM (inactive).
The figure for `Cn1cnnc1SCCCNC(=O)Nc1ncccn1` is > 4 mM (inactive); for `CCCn1cnc2sc(C(N)=O)c(C)c2c1=O` it is > 4 mM (inactive); for `Cc1noc(-c2ccccc2)c1CO` it is > 4 mM (inactive).
With `NC(=O)c1ccccc1N1CCCCC1`, the Kd is > 4 mM (inactive).
With `CSc1ccn(CCC(=O)O)c(=O)n1`, the Kd is > 4 mM (inactive).
The figure for `CC1(C)Cc2nc(N3CCOCC3)c(C#N)cc2CO1` is > 4 mM (inactive); for `COC(=O)c1cc2ccccc2cn1` it is > 4 mM (inactive).
Regarding `O=C1C=CC2=C3c4cc(O)c(O)cc4CC3(O)COC2=C1O` (centres undefined), the Kd is > 4 mM (inactive).
Under `CC(C)=CCCC1(C)C=Cc2c(O)c3c(c(CC=C(C)C)c2O1)OC12C(=CC4CC1C(C)(C)OC2(C/C=C(/C)C(=O)O)C4O)C3=O` (centres undefined) stands > 4 mM (inactive).
On to `CN1C(=O)c2ccc(N3CCCC3)cc2C1=O`, for which the Kd was > 4 mM (inactive).
The figure for `O=C(c1cc2ccccc2o1)c1nc2c(n1O)CCCCC2` is > 4 mM (inactive).
The figure for `Nc1ncnc2c1ncn2C1C[C@H](O)[C@@H](CO)O1` (some centres undefined) is > 4 mM (inactive); for `NC(=O)c1ccc2c(c1)OCO2` it is > 4 mM (inactive); for `O=C(CSC1=NCCS1)N1CCc2ccccc21` it is > 4 mM (inactive).
For the compound `OCc1ccccc1O[C@@H]1O[C@H](CO)[C@@H](O)[C@H](O)[C@H]1O`, the Kd is > 4 mM (inactive).
Under `N#Cc1ccccc1Cn1c(-c2cscn2)nc2ccccc21` stands “inactive”.
Under `CCN1CCC(=NO)CC1` stands > 4 mM (inactive).
Under `CS(C)=C1C(=O)NC(=O)N(Cc2ccc(F)cc2)C1=O` stands > 4 mM (inactive); under `Cc1ccccc1NC(=O)c1ocnc1C`, > 4 mM (inactive); under `O=C(O)c1cccc(CSc2ncccn2)c1`, > 4 mM (inactive).
`OCn1nnn(-c2ccccc2)c1=S`: the Kd is > 4 mM (inactive).
Regarding `CC(C)=NNC(=O)C(=O)Nc1ccc(F)cc1`, the Kd was > 4 mM (inactive).
The figure for `CC(=O)c1c(C)nc2ccccc2c1N` is > 4 mM (inactive); for `C=CCCCCCCCCCCCC(O)CC(O)CO` (centres undefined) (tested in a mixture with another compound) it is > 4 mM (inactive); for `COc1ccc2c(=O)c(OC)c(-c3ccccc3)oc2c1` it is > 4 mM (inactive).
The figure for `CC1(C)C(=O)[C@@H]2C[C@@]3(O)C4=CC(=O)O[C@@H](c5ccoc5)[C@]4(C)CCC3C(C)(C2=O)[C@H]1CC(=O)O` (some centres undefined) is > 4 mM (inactive); for `CC(=O)c1nnc2cc(C)nn2c1C` it is > 4 mM (inactive); for `NCc1csc(-c2cccs2)n1` it is > 4 mM (inactive).
The figure for `C[N+](C)(C)CC(O)CC(=O)O` (centres undefined) is > 4 mM (inactive).
Consider `CC1(C)CCC(C)(C)c2cc(C(=O)O)ccc21`, for which the Kd was > 4 mM (inactive).
The figure for `O=C(O)Cc1csc(-c2ccccc2)n1` is > 4 mM (inactive); for `c1ccc(-c2noc(-c3ccc4c(c3)OCO4)n2)nc1` it is > 4 mM (inactive).
The figure for `CN(C)C(=O)Oc1ccc(-c2nnco2)cc1` is > 4 mM (inactive).
Under `Cc1cc(=O)cc(C)n1-c1ccccc1N` stands > 4 mM (inactive); under `C/C=C(/C)C(=O)O[C@@H]1Cc2c(ccc3ccc(=O)oc23)OC1(C)C`, > 4 mM (inactive).
Take `N=Nc1c(O)[nH]c2ccccc12`: the Kd is > 4 mM (inactive).
Under `Cc1nc(-c2cccc(-c3noc(C)n3)c2)no1` stands > 4 mM (inactive).
Under `O=C(Nn1cnnc1)c1csc2c1CCCC2` stands > 4 mM (inactive).
The figure for `CN1C2CC[C@@H]1CC(OC(=O)[C@H](CO)c1ccccc1)C2` (some centres undefined) is > 4 mM (inactive); for `COc1cc2c(c(OC)c1OC)-c1ccc(O)c(=O)cc1[C@@H](NC(C)=O)CC2` it is > 4 mM (inactive).
Take `OCc1ccc(OC(F)(F)F)cc1`: the Kd was > 4 mM (inactive).
Under `O=c1c(O)c(-c2ccccc2)oc2ccccc12` stands > 4 mM (inactive); under `Cc1nnc(NCc2ccc3c(c2)OCO3)[nH]c1=O`, > 4 mM (inactive).
Under `COc1ccc(N2CC(=O)NC2=O)cc1` stands > 4 mM (inactive); under `Fc1ccc(NC2=NCCS2)cc1Cl`, > 4 mM (inactive).
As to `CC(C)NC1CS(=O)(=O)CC1O` (centres undefined), the Kd is > 4 mM (inactive).
Under `S=C(NCC1CCCO1)NC1CC1` (centres undefined) stands > 4 mM (inactive); under `C[C@H]1C(=O)O[C@@H]2CCN3CC=C(COC(=O)[C@](C)(O)[C@]1(C)O)[C@H]23`, > 4 mM (inactive).
As for `Cc1ccc(=O)[nH]c1`, the Kd is > 4 mM (inactive).
